Reference: ChEMBL document CHEMBL4665770, “Design and Discovery of Natural Cyclopeptide Skeleton Based Programmed Death Ligand 1 Inhibitor as Immune Modulator for Cancer Therapy” (J Med Chem, 2020)
Active and inactive are the calls of the source. The rule behind the calls is not given here.

Tests used:
[1] = biological target: T1, Programmed cell death protein 1/Programmed cell death 1 ligand 1 (Homo sapiens, UniProt Q9NZQ7); test: Inhibition of PD1-Tag2/PD-L1-Tag1 (unknown origin) protein-protein interaction preincubated for 15 mins followed by addition of anti-Tag1-Eu3+ and anti-Tag2-XL665 measured after 3 hrs by HTRF assay; type: protein-complex assay
T1 sequence (Q15116 whole entry): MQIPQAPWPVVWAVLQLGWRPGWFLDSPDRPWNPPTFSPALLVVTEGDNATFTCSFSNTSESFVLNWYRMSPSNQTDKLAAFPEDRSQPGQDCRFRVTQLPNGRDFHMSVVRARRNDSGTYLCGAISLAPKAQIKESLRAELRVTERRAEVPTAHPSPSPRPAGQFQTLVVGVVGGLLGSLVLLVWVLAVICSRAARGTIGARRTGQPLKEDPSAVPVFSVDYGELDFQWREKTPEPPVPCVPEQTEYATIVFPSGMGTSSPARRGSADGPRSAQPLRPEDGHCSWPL
T1 sequence (Q9NZQ7 whole entry): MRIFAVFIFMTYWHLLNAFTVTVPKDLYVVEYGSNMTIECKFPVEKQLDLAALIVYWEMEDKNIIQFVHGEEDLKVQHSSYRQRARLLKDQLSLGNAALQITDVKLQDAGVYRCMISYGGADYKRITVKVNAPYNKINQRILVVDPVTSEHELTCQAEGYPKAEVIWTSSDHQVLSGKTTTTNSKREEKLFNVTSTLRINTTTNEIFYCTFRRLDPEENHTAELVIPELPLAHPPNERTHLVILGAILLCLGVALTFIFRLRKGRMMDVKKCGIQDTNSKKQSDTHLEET

[2] = biological target: Programmed cell death protein 1/Programmed cell death 1 ligand 1 (Homo sapiens) (UniProt Q15116+Q9NZQ7); test: Inhibition of PD1-Tag2/PD-L1-Tag1 (unknown origin) protein-protein interaction at 20 uM preincubated for 15 mins followed by addition of anti-Tag1-Eu3+ and anti-Tag2-XL665 measured after 3 hrs by HTRF assay relative to control; type: protein-complex assay; conditions: time 195.0 min
MDA-MB-231 [3] = test: Cytotoxicity against human MDA-MB-231 cells assessed as reduction in cell viability at 0.312 to 80 uM incubated for 72 hrs by MTT assay; type: cell-based; conditions: mda-mb-231, 72 h, dose 0.312-80 µM
[4] = Induction of apoptosis in human PBMC cells assessed as activated caspase-3 at 20 uM incubated for 24 hrs by GrennNuc caspase-3 substrate based assay; type: cell-based
MC-38 [5] = test: Immunomodulatory activity in mouse MC38 cells xenografted in C57/BL mouse assessed as increase in infiltration of CD3-positive T cells at 40 mg/kg, ip administered every other day from day 6 post implantation by DAPI staining based immunofluorescence microscopy; type: functional, organism-based
B16-F10 [6] = test: Induction of immune response mediated antitumor activity in mouse B16F10 cells xenografted in C57/BL mouse assessed as change in ratio of CD3+/CD45+ cells at 40 mg/kg, ip administered every other day from day 6 post implantation by flow cytometry; type: functional, organism-based
MDA-MB-231 [7] = test: Immunomodulatory activity in human CFDA SE-labelled MDA-MB-231 cells cocultured with PMBC assessed as induction of PBMC recruitment to MDA-MB-231 cells by measuring late apoptotic cells at 20 uM incubated for 48 hrs by propidium iodide staining based flow cytometry analysis (reference value: 0 %); type: functional
[8] = biological target: Programmed cell death 1 ligand 1 (Homo sapiens, UniProt Q9NZQ7); test: Binding affinity to PDL1 (unknown origin) by SPR analysis
Sequence of Programmed cell death 1 ligand 1 (Q9NZQ7 whole entry): as above

[9] = Induction of immune response mediated antitumor activity in mouse B16F10 cells xenografted in C57/BL mouse assessed as infiltration of CD45 cells at 40 mg/kg, ip administered every other day from day 6 post implantation by flow cytometry (reference value: 1.81 %); type: functional, B16-F10
[10] = biological target: Programmed cell death protein 1 (Homo sapiens, UniProt Q15116); test: Binding affinity to PD1 (unknown origin) by SPR analysis
Sequence of Programmed cell death protein 1 (Q15116 whole entry): as the sequence (Q15116 whole entry) above

MDA-MB-231 [11] = test: Immunomodulatory activity in human MDA-MB-231 cocultured with PMBC assessed as induction of PBMC recruitment to MDA-MB-231 cells by measuring increase in cell cluster at 20 uM incubated for 12 to 48 hrs by EVOS FL digital microscopic analysis; type: functional, cell-based; conditions: time hrs 12-48
MDA-MB-231 [12] = test: Immunomodulatory activity in human MDA-MB-231 cells expressing luciferase assessed as induction of PBMC-induced cell death incubated for 72 hrs by LDH assay; type: functional, cell-based; conditions: dose microM 0.313-80, time 72.0 hrs
MDA-MB-231 [13] = test: Immunomodulatory activity in human CFDA SE-labelled MDA-MB-231 cells cocultured with PMBC assessed as induction of PBMC recruitment to MDA-MB-231 cells by measuring necrotic cell at 20 uM incubated for 48 hrs by propidium iodide staining based flow cytometry analysis (reference value: 0.13 %); type: functional
MC-38 [14] = test: Immunomodulatory activity in mouse MC38 cells xenografted in C57/BL mouse assessed as increase in infiltration of CD8-positive T cells at 40 mg/kg, ip administered every other day from day 6 post implantation by DAPI staining based immunofluorescence microscopy; type: functional, organism-based
[15] = Toxicity in mouse MC38 cells xenografted C57/BL mouse assessed as change in body weight at 40 mg/kg, ip administered every other day from day 6 post implantation measured every 2 days; type: organism-based; conditions: in vivo, 48 h
MDA-MB-231 [16] = test: Immunomodulatory activity in human MDA-MB-231 cells cocultured with human PBMC assessed as induction of PBMC recruitment to MDA-MB-231 cells by measuring increase in activated caspase-3 at 20 uM incubated for 24 hrs by GrennNuc caspase-3 substrate based assay; type: functional, cell-based
B16-F10 [17] = test: Toxicity in mouse B16F10 cells xenografted C57/BL mouse assessed as change in body weight at 40 mg/kg, ip administered every other day from day 6 post implantation measured every 2 days; type: organism-based; conditions: in vivo, 48 h
[18] = Induction of immune response mediated antitumor activity in mouse B16F10 cells xenografted in C57/BL mouse assessed as infiltration of CD8 cells at 40 mg/kg, ip administered every other day from day 6 post implantation by flow cytometry (reference value: 26.9 %); type: functional, B16-F10
MDA-MB-231 [19] = test: Immunomodulatory activity in human CFDA SE-labelled MDA-MB-231 cells cocultured with PMBC assessed as induction of PBMC recruitment to MDA-MB-231 cells by measuring viable cells at 20 uM incubated for 48 hrs by propidium iodide staining based flow cytometry analysis (reference value: 99.87 %); type: functional
[20] = biological target: T1, Programmed cell death protein 1/Programmed cell death 1 ligand 1; test: Inhibition of FC-tagged PD1/His-tagged PD-L1 (unknown origin) protein-proteiinteraction incubated for 3 hrs by coimmunoprecipitation-based Western blot assay; type: protein-complex assay
MC-38 [21] = test: Induction of immune response mediated antitumor activity in mouse MC38 cells xenografted in C57/BL mouse assessed as tumor growth inhibition at 40 mg/kg, ip administered every other day from day 6 post implantation measured every 2 days; type: functional, organism-based
[22] = Induction of immune response mediated antitumor activity in mouse B16F10 cells xenografted in C57/BL mouse assessed as reduction in tumor volume at 40 mg/kg, ip administered every other day from day 6 post implantation measured every 2 days relative to control; type: functional, B16-F10; design: scale not given: the % may be the effect or the level left
[23] = Induction of immune response mediated antitumor activity in mouse B16F10 cells xenografted in C57/BL mouse assessed as infiltration of CD3 cells at 40 mg/kg, ip administered every other day from day 6 post implantation by flow cytometry (reference value: 1.45 %); type: functional, B16-F10
[24] = Induction of immune response mediated antitumor activity in mouse B16F10 cells xenografted in C57/BL mouse assessed as reduction in tumor weight at 40 mg/kg, ip administered every other day from day 6 post implantation measured every 2 days relative to control; type: functional, B16-F10; design: scale not given: the % may be the effect or the level left
MDA-MB-231 [25] = test: Immunomodulatory activity in human CFDA SE-labelled MDA-MB-231 cells cocultured with PMBC assessed as induction of PBMC recruitment to MDA-MB-231 cells by measuring early apoptotic cells at 20 uM incubated for 48 hrs by propidium iodide staining based flow cytometry analysis (reference value: 0 %); type: functional
MC-38 [26] = test: Immunomodulatory activity in mouse MC38 cells xenografted in C57/BL mouse assessed as increase in perforin at 40 mg/kg, ip administered every other day from day 6 post implantation by hematoxylin staining based immunohistochemical analysis; type: functional, organism-based
B16-F10 [27] = test: Induction of immune response mediated antitumor activity in mouse B16F10 cells xenografted in C57/BL mouse assessed as change in ratio of CD8+/CD3+ cells at 40 mg/kg, ip administered every other day from day 6 post implantation by flow cytometry; type: functional, organism-based
MDA-MB-231 [28] = test: Immunomodulatory activity in human MDA-MB-231 cells expressing luciferase assessed as induction of PBMC-induced cell death incubated for 72 hrs by tecan-plate reader based luciferase assay; type: functional; conditions: dose microM 0.313-80, time 72.0 hrs
B16-F10 [29] = test: Induction of immune response mediated antitumor activity in mouse B16F10 cells xenografted in C57/BL mouse coadministered with anti-CD8 antibody assessed as suppression of tumor growth at 40 mg/kg, ip administered every other day from day 6 post implantation measured every 2 days; type: functional, organism-based
MDA-MB-231 [30] = test: Induction of apoptosis in human MDA-MB-231 cells assessed as activated caspase-3 at 20 uM incubated for 24 hrs by GrennNuc caspase-3 substrate based assay; type: cell-based; conditions: mda-mb-231, 24 h
MC-38 [31] = test: Immunomodulatory activity in mouse MC38 cells xenografted in C57/BL mouse assessed as increase in granzyme B at 40 mg/kg, ip administered every other day from day 6 post implantation by hematoxylin staining based immunohistochemical analysis; type: functional, organism-based
MDA-MB-231 [32] = test: Cytotoxicity against human MDA-MB-231 cells expressing luciferase assessed as reduction in cell viability at 0.312 to 80 uM incubated for 72 hrs by tecan-plate reader based luciferase assay; conditions: mda-mb-231, 72 h, dose 0.312-80 µM

CCCC[C@@H]1NC(=O)[C@H](CC(=O)O)NC(=O)[C@H]([C@@H](C)O)NC(=O)[C@@H]2CCCN2C(=O)[C@@H](Cc2c[nH]c3ccccc23)NC(=O)[C@H](CC(C)C)NC(=O)[C@H](CCCNC(=N)N)NC(=O)[C@H](C(C)C)NC(=O)[C@@H]2CCCN2C(=O)[C@@H](Cc2ccccc2)NC1=O
IC50 [1]: 5.02 µM
inhibition [2]: 82.1%

CC(NCCCC[C@@H]1NC(=O)[C@@H](Cc2ccccc2)NC(=O)[C@H](CC(C)C)NC(=O)[C@H](CC(=O)O)NC(=O)[C@H]([C@@H](C)O)NC(=O)[C@@H]2CCCN2C(=O)[C@@H](Cc2c[nH]c3ccccc23)NC(=O)[C@H](CC(C)C)NC(=O)[C@H](CCCNC(=N)N)NC(=O)[C@H](C(C)C)NC1=O)=C1C(=O)CC(C)(C)CC1=O
Activity (MDA-MB-231 [3]): Non-Toxic
Activity [4]: Non-Toxic
Activity (MC-38 [5]): Active
Activity (B16-F10 [6]): inactive
Activity (MDA-MB-231 [7]): 57.03%
Kd [8]: 5.67 µM
Activity [9]: 13.3%
Kd [10]: 1660 µM
Activity (MDA-MB-231 [11]): Active
Activity (MDA-MB-231 [12]): Dose-dependent effect
Activity (MDA-MB-231 [13]): 0%
Activity (MC-38 [14]): Active
Activity [15]: Non-Toxic
Activity (MDA-MB-231 [16]): Active
Activity (B16-F10 [17]): Non-Toxic
Activity [18]: 36.5%
Activity (MDA-MB-231 [19]): 0.46%
IC50 [20]: 0.45 µM
TGI (MC-38 [21]): Active
Activity [22]: 54.8%
Activity [23]: 5.21%
Activity [24]: 64.9%
IC50 [1]: 1.42 µM
Activity (MDA-MB-231 [25]): 42.33%
Activity (MC-38 [26]): Active
Activity (B16-F10 [27]): inactive
Activity (MDA-MB-231 [28]): Dose-dependent effect
Activity (B16-F10 [29]): inactive
inhibition [2]: 95.8%
Activity (MDA-MB-231 [30]): Non-Toxic
Activity (MC-38 [31]): Active
Activity (MDA-MB-231 [32]): Non-Toxic

CC(C)C[C@@H]1NC(=O)[C@H](CC(=O)O)NC(=O)[C@H](C(C)C)NC(=O)[C@@H]2CCCN2C(=O)[C@@H](Cc2ccccc2)NC(=O)[C@H](CC(C)C)NC(=O)[C@H](CCCNC(=N)N)NC(=O)[C@H](C(C)C)NC(=O)[C@@H]2CCCN2C(=O)[C@@H](Cc2ccccc2)NC1=O
IC50 [1]: 9.63 µM
inhibition [2]: 57.3%

CC[C@H](C)[C@@H]1NC(=O)[C@H](CC(=O)O)NC(=O)[C@H]([C@@H](C)O)NC(=O)[C@@H]2CCCN2C(=O)[C@@H](Cc2c[nH]c3ccccc23)NC(=O)[C@H](CC(C)C)NC(=O)[C@H](CCCNC(=N)N)NC(=O)[C@H]([C@@H](C)CC)NC(=O)[C@@H]2CCCN2C(=O)[C@@H](Cc2ccccc2)NC1=O
IC50 [1]: 5.37 µM
inhibition [2]: 80.4%

CC(C)C[C@@H]1NC(=O)[C@H](CCCNC(=N)N)NC(=O)[C@H](C(C)C)NC(=O)[C@@H]2CCCN2C(=O)[C@@H](Cc2ccccc2)NC(=O)[C@H](CC(C)C)NC(=O)[C@H](CC(=O)O)NC(=O)[C@H](C)NC(=O)[C@@H]2CCCN2C(=O)[C@@H](Cc2ccccc2)NC1=O
IC50 [1]: 8.1 µM
inhibition [2]: 66.4%

CC(C)C[C@@H]1NC(=O)[C@H](CC(=O)O)NC(=O)[C@H](C(C)C)NC(=O)[C@@H]2CCCN2C(=O)[C@@H](Cc2c[nH]c3ccccc23)NC(=O)[C@H](CC(C)C)NC(=O)[C@H](CCCNC(=N)N)NC(=O)[C@H](C(C)C)NC(=O)[C@@H]2CCCN2C(=O)[C@@H](Cc2ccccc2)NC1=O
IC50 [1]: 7.42 µM
inhibition [2]: 66.8%
